Experimental data from ChEMBL document CHEMBL1130464, “Analogues of trichosatin a and trapoxin B as histone deacetylase inhibitors” (Bioorg Med Chem Lett, 1997).

What was measured:
[1] = biological target: T1, Histone deacetylase HD2 (Zea mays) (UniProt Q94F81); assay: Inhibitory concentration against deacetylase HD2 enzyme of maize at 30 uM
T1 sequence (whole entry): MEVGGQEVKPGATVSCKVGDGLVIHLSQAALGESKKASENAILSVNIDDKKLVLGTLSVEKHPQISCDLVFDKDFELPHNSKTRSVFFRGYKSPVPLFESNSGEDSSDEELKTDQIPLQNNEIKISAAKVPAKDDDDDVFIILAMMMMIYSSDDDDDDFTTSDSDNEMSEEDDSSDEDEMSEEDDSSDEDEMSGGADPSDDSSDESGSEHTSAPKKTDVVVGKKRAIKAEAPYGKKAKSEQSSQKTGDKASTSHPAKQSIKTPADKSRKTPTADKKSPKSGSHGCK

[2] = biological target: T1, Histone deacetylase HD2 (Zea mays)

Structure (SMILES)	inhibition [1]	IC90 [2]
CN(C)c1ccc(C(=O)NCCCCCC(=O)NO)cc1	94%	
CC(/C=C/C(=O)NO)=C\[C@@H](C)C(=O)c1ccc(N(C)C)cc1		100 nM
O=C(CCCCCCC(=O)N[C@@H](Cc1ccccc1)C(=O)O)NO	82%	
COC(=O)[C@H](Cc1ccccc1)NC(=O)CCCCCCC(=O)NO	76%	
